According to PubChem BioAssay AID212 (DTP/NCI, 2004):
Several values for one entry are separate records, joined by “and”; a condition that tells them apart may be missing. Equal entries are not always repeated. Records with an inconclusive call do not appear.

System: BDF1 mice, colon carcinoma 38 sc, T/C %
Test: NCI In Vivo Anticancer Drug Screen. Data for tumor model Colon Carcinoma 38 (subcutaneous) in B6D2F1 (BDF1) mice
Method in brief: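 Mice with transplanted tumors are treated with compound or vehicle. Survival or tumor size is then measured in both groups. The ratio of treated to control gives the reported figure.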

Nc1ccc2c(c1)CN1C(=O)c3ccccc3C1=N2
T/C (endpoint: median survival time, dose: 60.0 mg/kg/injection, schedule: Q07DX002 (oral), vehicle: saline with Tween-80, higher = longer survival): 96 % of control
T/C (endpoint: median survival time, dose: 100.0 mg/kg/injection, schedule: Q01DX008 (oral), vehicle: saline with Tween-80, higher = longer survival): 103 % of control
T/C (endpoint: median survival time, dose: 200.0 mg/kg/injection, schedule: Q01DX008 (oral), vehicle: saline with Tween-80, higher = longer survival): 96 % of control
T/C (endpoint: median survival time, dose: 800.0 mg/kg/injection, schedule: Q07DX002 (oral), vehicle: saline with Tween-80, higher = longer survival): 90 % of control
T/C (endpoint: median survival time, dose: 1000.0 mg/kg/injection, schedule: Q07DX002 (oral), vehicle: saline with Tween-80, higher = longer survival): 97 % of control
T/C (endpoint: median tumor weight (est.), dose: 50.0 mg/kg/injection, schedule: Q07DX002 (ip), vehicle: DMSO, higher = larger tumour): 50 % of control
T/C (endpoint: median tumor weight (est.), dose: 100.0 mg/kg/injection, schedule: Q07DX002 (ip), vehicle: other, higher = larger tumour): 13 % of control
T/C (endpoint: median tumor weight (est.), dose: 103.7 mg/kg/injection, schedule: Q01DX005 (oral), vehicle: saline with Tween-80, higher = larger tumour): 52 % of control
T/C (endpoint: median tumor weight (est.), dose: 129.6 mg/kg/injection, schedule: Q06HX004 (oral), vehicle: saline with Tween-80, higher = larger tumour): 26 % of control
T/C (endpoint: median tumor weight (est.), dose: 172.8 mg/kg/injection, schedule: Q01DX005 (oral), vehicle: saline with Tween-80, higher = larger tumour): 52 % of control
T/C (endpoint: median tumor weight (est.), dose: 200.0 mg/kg/injection, schedule: Q07DX002 (oral), vehicle: saline with Tween-80, higher = larger tumour): 27 % of control
T/C (endpoint: median tumor weight (est.), dose: 216.0 mg/kg/injection, schedule: Q06HX004 (oral), vehicle: saline with Tween-80, higher = larger tumour): 16 % of control
T/C (endpoint: median tumor weight (est.), dose: 288.0 mg/kg/injection, schedule: Q01DX005 (oral), vehicle: saline with Tween-80, higher = larger tumour): 7 % of control
T/C (endpoint: median tumor weight change, dose: 70.4 mg/kg/injection, schedule: Q01DX009 (oral), vehicle: saline with Tween-80, higher = larger tumour): 13 % of control
T/C (endpoint: median tumor weight change, dose: 105.6 mg/kg/injection, schedule: Q01DX005 (oral), vehicle: saline with Tween-80, higher = larger tumour): 68 % of control
T/C (endpoint: median tumor weight change, dose: 105.6 mg/kg/injection, schedule: Q01DX009 (oral), vehicle: saline with Tween-80, higher = larger tumour): 42 % of control
T/C (endpoint: median tumor weight change, dose: 158.3 mg/kg/injection, schedule: Q01DX005 (oral), vehicle: saline with Tween-80, higher = larger tumour): -5 % of control
T/C (endpoint: median tumor weight change, dose: 158.3 mg/kg/injection, schedule: Q01DX009 (oral), vehicle: saline with Tween-80, higher = larger tumour): -40 % of control
T/C (endpoint: median tumor weight change, dose: 158.3 mg/kg/injection, schedule: Q06HX002 (oral), vehicle: saline with Tween-80, higher = larger tumour): 71 % of control
T/C (endpoint: median tumor weight change, dose: 158.3 mg/kg/injection, schedule: Q06HX004 (oral), vehicle: saline with Tween-80, higher = larger tumour): 60 % of control
T/C (endpoint: median tumor weight change, dose: 158.3 mg/kg/injection, schedule: Q07DX003 (oral), vehicle: saline with Tween-80, higher = larger tumour): 24 % of control
T/C (endpoint: median tumor weight change, dose: 237.0 mg/kg/injection, schedule: Q08DX002 (oral), vehicle: saline with Tween-80, higher = larger tumour): 33 % of control
T/C (endpoint: median tumor weight change, dose: 237.4 mg/kg/injection, schedule: Q01DX005 (oral), vehicle: saline with Tween-80, higher = larger tumour): -60 % of control
T/C (endpoint: median tumor weight change, dose: 237.4 mg/kg/injection, schedule: Q06HX002 (oral), vehicle: saline with Tween-80, higher = larger tumour): 37 % of control
T/C (endpoint: median tumor weight change, dose: 237.4 mg/kg/injection, schedule: Q06HX004 (oral), vehicle: saline with Tween-80, higher = larger tumour): 36 % of control
T/C (endpoint: median tumor weight change, dose: 237.4 mg/kg/injection, schedule: Q07DX002 (oral), vehicle: saline with Tween-80, higher = larger tumour): 80 % of control
T/C (endpoint: median tumor weight change, dose: 237.4 mg/kg/injection, schedule: Q07DX003 (oral), vehicle: saline with Tween-80, higher = larger tumour): 69 % of control
T/C (endpoint: median tumor weight change, dose: 355.9 mg/kg/injection, schedule: Q01DX001 (oral), vehicle: saline with Tween-80, higher = larger tumour): 68 % of control
T/C (endpoint: median tumor weight change, dose: 355.9 mg/kg/injection, schedule: Q01DX005 (oral), vehicle: saline with Tween-80, higher = larger tumour): -88 % of control
T/C (endpoint: median tumor weight change, dose: 355.9 mg/kg/injection, schedule: Q06HX002 (oral), vehicle: saline with Tween-80, higher = larger tumour): 48 % of control and 66 % of control
T/C (endpoint: median tumor weight change, dose: 355.9 mg/kg/injection, schedule: Q06HX004 (oral), vehicle: saline with Tween-80, higher = larger tumour): -13 % of control
T/C (endpoint: median tumor weight change, dose: 355.9 mg/kg/injection, schedule: Q07DX002 (oral), vehicle: saline with Tween-80, higher = larger tumour): 23 % of control
T/C (endpoint: median tumor weight change, dose: 355.9 mg/kg/injection, schedule: Q07DX003 (oral), vehicle: saline with Tween-80, higher = larger tumour): 55 % of control
T/C (endpoint: median tumor weight change, dose: 355.9 mg/kg/injection, schedule: Q08DX002 (oral), vehicle: saline with Tween-80, higher = larger tumour): 33 % of control
T/C (endpoint: median tumor weight change, dose: 533.6 mg/kg/injection, schedule: Q01DX001 (oral), vehicle: saline with Tween-80, higher = larger tumour): 66 % of control
T/C (endpoint: median tumor weight change, dose: 533.6 mg/kg/injection, schedule: Q06HX002 (oral), vehicle: saline with Tween-80, higher = larger tumour): -46 % of control and -38 % of control
T/C (endpoint: median tumor weight change, dose: 533.6 mg/kg/injection, schedule: Q06HX004 (oral), vehicle: saline with Tween-80, higher = larger tumour): -50 % of control
T/C (endpoint: median tumor weight change, dose: 533.6 mg/kg/injection, schedule: Q07DX002 (oral), vehicle: saline with Tween-80, higher = larger tumour): 52 % of control
T/C (endpoint: median tumor weight change, dose: 533.6 mg/kg/injection, schedule: Q07DX003 (oral), vehicle: saline with Tween-80, higher = larger tumour): 34 % of control
T/C (endpoint: median tumor weight change, dose: 533.6 mg/kg/injection, schedule: Q08DX002 (oral), vehicle: saline with Tween-80, higher = larger tumour): 34 % of control
T/C (endpoint: median tumor weight change, dose: 800.0 mg/kg/injection, schedule: Q01DX001 (oral), vehicle: saline with Tween-80, higher = larger tumour): 47 % of control
T/C (endpoint: median tumor weight change, dose: 800.0 mg/kg/injection, schedule: Q06HX002 (oral), vehicle: saline with Tween-80, higher = larger tumour): -87 % of control and -85 % of control
T/C (endpoint: median tumor weight change, dose: 800.0 mg/kg/injection, schedule: Q06HX004 (oral), vehicle: saline with Tween-80, higher = larger tumour): -99 % of control
T/C (endpoint: median tumor weight change, dose: 800.0 mg/kg/injection, schedule: Q07DX002 (oral), vehicle: saline with Tween-80, higher = larger tumour): 1 % of control
T/C (endpoint: median tumor weight change, dose: 800.0 mg/kg/injection, schedule: Q07DX003 (oral), vehicle: saline with Tween-80, higher = larger tumour): -10 % of control
T/C (endpoint: median tumor weight change, dose: 800.0 mg/kg/injection, schedule: Q08DX002 (oral), vehicle: saline with Tween-80, higher = larger tumour): -14 % of control
T/C (endpoint: median tumor weight change, dose: 1199.4 mg/kg/injection, schedule: Q01DX001 (oral), vehicle: saline with Tween-80, higher = larger tumour): 39 % of control
T/C (endpoint: median tumor weight change, dose: 1199.4 mg/kg/injection, schedule: Q08DX002 (oral), vehicle: saline with Tween-80, higher = larger tumour): -36 % of control
